A short description of series [1]: Blood level and bioavailability in rats (Experiment E-2). Particulars: rat, blood, po. The text has this:
Then changes in the blood level of each medicament were monitored with the lapse of time by using liquid chromatography.

The subject of series [2] is SHR. As to the kind of experiment: Effect by oral administration on SHR, tail cuff method (Experiment C-6). The format is in vivo, Spontaneously hypertensive male rats. How it is done:
By using Spontaneously hypertensive male rats (aged 16 to 17 weeks), the compound of Example C-8 and a comparative compound [S-(R*,R*)]-2,3,4,5-tetrahydro-3-[(2-mercapto-1-oxohexyl)amino]-2-oxo-1H-benzazepine-1-acetic acid having the following structure each dissolved in 0.5% methylcellulose were orally administered thereto. Hypotensive effects were measured by the tail cuff method and data obtained before the oral administration and 2, 4 and 8 hours after the administration were compared. […] Accordingly, the compound of Example C-8 has an activity about 10 times as high as that of the comparative compound. [drawing 35]

Series [3] concerns the target T1, vasopressin (V1) receptor (Rattus norvegicus, UniProt P30560).
T1 construct: Membrane specimens of rat liver (V1); from tissue; host or cells: rat liver membranes
The series can be described thus: V1 receptor binding assay, rat liver membrane (Experiment F-2). The following applies: [3H]-Arg-vasopressin, pH 7.4. How it is done:
Membrane specimens of rat liver (V1) and rat kidney (V2) were used. 100,000 counts (3.69 nM) of [^3 H]-Arg-vasopressin, 25 μg (1 mg protein/ml) of each membrane specimen and a test medicament (10^-7 to 10^-5 M) were incubated in 250 μl in total of an assay buffer (pH=7.4) containing 10 mM of MgCl2, 2 mM of EGTA and 20 mM of HEPES at 4° C. over day and night. Then, the incubation was washed with 5-ml portions of the buffer 5 times to thereby separate the membrane specimen binding to vasopressin followed by filtration with the use of a glass filter (GF/F). This glass filter was dried for about 3 hours and mixed with a cocktail for liquid scintillation (10 ml, ACSII). After allowing to stand overnight, the amount of the [^3 H]-Arg-vasopressin binding to the membrane was determined with a liquid scintillation counter and the inhibition ratio was calculated in accordance with the following formula: […]
B1; the amount of [^3 H]-Arg-vasopressin binding to the membrane in the presence of excessive vasopressin (10 μM)
C0; the amount of [^3 H]-Arg-vasopressin binding to the membrane in the absence of the test medicament and
C1; the amount of [^3 H]-Arg-vasopressin binding to the membrane in the presence of both the test medicament in a known amount and [^3 H]-Arg-vasopressin. […]

A value given as a limit tells only on which side of the number the result lay.

What is called bioavailability is dose-corrected exposure relative to a reference, in per cent. As a reminder, the IC50 is the concentration needed to halve the response being measured. Lower therefore signals greater potency in that assay.

T1 sequence (P30560 whole entry): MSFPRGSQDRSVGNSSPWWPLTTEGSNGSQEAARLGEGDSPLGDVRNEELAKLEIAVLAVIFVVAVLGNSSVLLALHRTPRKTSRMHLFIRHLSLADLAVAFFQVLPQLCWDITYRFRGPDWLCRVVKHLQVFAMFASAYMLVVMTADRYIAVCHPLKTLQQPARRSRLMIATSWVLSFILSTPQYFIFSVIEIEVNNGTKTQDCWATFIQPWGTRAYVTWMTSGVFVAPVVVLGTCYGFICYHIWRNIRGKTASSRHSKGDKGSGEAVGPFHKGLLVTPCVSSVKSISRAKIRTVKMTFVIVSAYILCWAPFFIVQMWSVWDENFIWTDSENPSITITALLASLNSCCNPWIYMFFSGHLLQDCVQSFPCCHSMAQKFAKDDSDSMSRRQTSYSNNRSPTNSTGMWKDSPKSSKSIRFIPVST

For the compound `O=C(N[C@H]1Cc2ccccc2[C@H]2CCC[C@@H](C(=O)O)N2C1=O)[C@@H](S)Cc1ccccc1` [Comp. cpd. E-1, [4S-[4α,7α(R*),12bβ]]-7-[(1-oxo-2-(S)-thio-3-phenyl-propyl)amino]-1,2,3,4,6,7,8,12b-octahydro-6-oxopyrido-[2,1-a][2]benzazepine-4-carboxylic acid, reference compound], the bioavailability in series [1] (10 mg/kg) worked out at 4.3%; in series [1] (30 mg/kg), 7.8%. As to `CC[C@H](C)[C@H](S)C(=O)N[C@H]1CCC[C@H]2SC[C@@H](C(=O)O)N2C1=O` [Example C-8, [3R-[3α,6α,(S*),9aβ]]-6-[[(2S,3S)-3-methyl-1-oxo-2-thiopentyl]amino]-octahydro-5-oxothiazol[3,2-a]-azepine-3-carboxylic acid], in series [2] (1.0 mg/kg oral, before and 2, 4 and 8 hours after), the “hypotensive effect (tail cuff method)” value is recorded as “comparable to the one achieved by 10 mg/kg of the above comparative compound”. Besides, the “activity relative to the comparative compound” value in series [2] (oral, SHR) is “about 10 times”. The compound `O=C(N[C@H]1CCC[C@H]2SC[C@@H](C(=O)O)N2C1=O)[C@@H](S)Cc1ccccc1` [Example F-17, [3R-[3α,6α(S*),9aβ]]-6-[[(S)-1-Oxo-2-thio-3-phenylpropyl]amino]-octahydro-5-oxothiazol[3,2-a]-azepine-3-carboxylic acid] came in with an IC50 in series [3] of at least 10 µM.

For the origin of these results see patent US5679671A, “Amino acid derivative” (Eisai Co., Ltd., priority 1993, dated 1997).
